In US9969724B2, “Factor IXa inhibitors” (Merck Sharp & Dohme Corp., priority 2014, dated 2018):
pIC50: −log10 of the molar value.

Molecular target: human factor IXa (Homo sapiens (Human), UniProt P00740)
Assay: Determination of Inhibitory Activity Against Factor IXa
Assay type: biochemical
Details: Factor IXa enzyme assay human; read-out: FIXa IC50
Experimental: Inhibitory activity against factor IXa was tested using the substrate SPECTROFLUOR FIXa (american diagnostica inc.; 500 West Avenue, Stamford, Conn. 06902 USA; Pr. No. 299F) and human factor IXa (american diagnostica inc.; Pr. No. 449b). Test substances were dissolved in buffer A (50 mM α,α,α-tris(hydroxymethyl) methylamine (Tris), 100 mM NaCl, 5 mM CaCl2, 15% (v/v) ethylene glycol, pH 8.0) were mixed with factor IXa (0.1 μg/ml final concentration). The enzyme reaction was started by addition of SPECTROFLUOR FIXa (100 μM final concentration). After incubation for 60 minutes at room temperature, the reaction was stopped by the addition of 20% (v/v) acetic acid solution, and then the fluorescence value was measured (Excitation Wavelength: 355 nm, Emission Wavelength; 460 nm) in a microtiter plate reader (ARVO 1420 Multilabel Counter; PerkinElmer).
The IC50 was calculated from a dilution series of the test substance with the aid of the software, Symyx Assay Explorer (Symyx Technologies, Inc.).

Chain of human factor IXa (P00740 227-461): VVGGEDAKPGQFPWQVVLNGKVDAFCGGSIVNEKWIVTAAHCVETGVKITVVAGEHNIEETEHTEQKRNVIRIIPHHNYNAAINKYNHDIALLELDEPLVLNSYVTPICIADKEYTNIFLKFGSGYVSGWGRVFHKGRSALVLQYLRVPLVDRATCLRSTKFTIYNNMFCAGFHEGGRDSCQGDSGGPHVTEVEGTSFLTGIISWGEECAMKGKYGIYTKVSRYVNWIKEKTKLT
Chain of human factor IXa (P00740 47-191 partner): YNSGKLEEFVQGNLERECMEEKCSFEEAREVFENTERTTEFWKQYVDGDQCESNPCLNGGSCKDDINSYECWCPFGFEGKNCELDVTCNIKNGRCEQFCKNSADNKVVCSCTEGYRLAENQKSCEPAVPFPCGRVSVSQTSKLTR

**Q.** With `C[C@H]1CN(c2cccc3c(N)noc23)C[C@]1(C)NC(=O)c1c(Cl)cc(-n2cnnc2)cc1Cl` (relative stereo) [Example 7, N-((3R*,4S*)-1-(3-Aminobenzo[d]isoxazol-7-yl)-3,4-dimethylpyrrolidin-3-yl)-2,6-dichloro-4-(4H-1,2,4-triazol-4-yl)benzamide] as the compound, how does the pIC50 read?
**A.** Its pIC50 is no less than 7.00.

**Q.** How did the pIC50 turn out when `Nc1noc2c(N3C[C@H](NC(=O)c4c(Cl)cc(-n5cnnc5)cc4Cl)[C@@H](O)C3)cccc12` (relative stereo) [Example 8, N-((3S*,4S*)-1-(3-Aminobenzo[d]isoxazol-7-yl)-4-hydroxypyrrolidin-3-yl)-2,6-dichloro-4-(4H-1,2,4-triazol-4-yl)benzamide] was run?
**A.** Its pIC50 is no less than 7.00.

**Q.** How did the pIC50 turn out when `Nc1noc2c(N3CCC(NC(=O)c4ccc(-n5cnnc5)cc4Cl)C3)cccc12` (stereo not drawn) [Example 1, N-(1-(3-Aminobenzo[d]isoxazol-7-yl)pyrrolidin-3-yl)-2-chloro-4-(4H-1,2,4-triazol-4-yl)benzamide] was run?
**A.** Its pIC50 is no less than 7.00.

**Q.** `CC1(NC(=O)c2c(Cl)cc(-n3cnnc3)cc2Cl)CCN(c2cccc3c(N)noc23)C1` (stereo not drawn) [Example 2, N-(1-(3-Aminobenzo[d]isoxazol-7-yl)-3-methylpyrrolidin-3-yl)-2,6-dichloro-4-(4H-1,2,4-triazol-4-yl)benzamide] was tested. Which pIC50 did it give?
**A.** The pIC50 was no less than 7.00.

**Q.** `Nc1nsc2c(N3CCC(NC(=O)c4c(Cl)cc(-n5cnnc5)cc4Cl)C3)cccc12` (stereo not drawn) [Example 4, N-(1-(3-Aminobenzo[d]isothiazol-7-yl)pyrrolidin-3-yl)-2,6-dichloro-4-(4H-1,2,4-triazol-4-yl)benzamide] was tested. Which pIC50 did it give?
**A.** The pIC50 was 6.00 to 7.00.

**Q.** `Nc1noc2c(N3CCC(NC(=O)c4ccc(-n5cnnc5)cc4Cl)C3)nccc12` (stereo not drawn) [Example 5, N-(1-(3-Aminoisoxazolo[5,4-c]pyridin-7-yl)pyrrolidin-3-yl)-2-chloro-4-(4H-1,2,4-triazol-4-yl)benzamide] was tested. Which pIC50 did it give?
**A.** The pIC50 was no less than 7.00.

**Q.** How did the pIC50 turn out when `Cc1cc(N2CCC(NC(=O)c3c(Cl)cc(-n4cnc(C)n4)cc3Cl)C2)c2onc(N)c2c1` (stereo not drawn) [Example 6, N-(1-(3-Amino-5-methylbenzo[d]isoxazol-7-yl)pyrrolidin-3-yl)-2,6-dichloro-4-(3-methyl-1H-1,2,4-triazol-1-yl)benzamide] was run?
**A.** The pIC50 was no less than 7.00.

**Q.** How did the pIC50 turn out when `Nc1noc2c(N3CC[C@@H](NC(=O)c4ccc(-n5cnnc5)cc4Cl)C3)ccc(Cl)c12` [Example 9, (R)—N-(1-(3-Amino-4-chlorobenzo[d]isoxazol-7-yl)pyrrolidin-3-yl)-2-chloro-4-(4H-1,2,4-triazol-4-yl)benzamide] was run?
**A.** The pIC50 was no less than 7.00.

**Q.** How did the pIC50 turn out when `Nc1noc2c(N3CC[C@@H](NC(=O)c4ccc(-n5cnnc5)cc4Cl)C3)cc(Cl)cc12` [Example 10, (R)—N-(1-(3-Amino-5-chlorobenzo[d]isoxazol-7-yl)pyrrolidin-3-yl)-2-chloro-4-(4H-1,2,4-triazol-4-yl)benzamide] was run?
**A.** Its pIC50 is no less than 7.00.

**Q.** `Cc1ncn(-c2ccc(C(=O)N[C@@H]3CCN(c4ncc(Cl)c5c(N)noc45)C3)c(Cl)c2)n1` [Example 11, (R)—N-(1-(3-Amino-4-chloroisoxazolo[5,4-c]pyridin-7-yl)pyrrolidin-3-yl)-2-chloro-4-(3-methyl-1H-1,2,4-triazol-1-yl)benzamide] was tested. Which pIC50 did it give?
**A.** Its pIC50 is no less than 7.00.

**Q.** How did the pIC50 turn out when `Cc1cc(N2CC[C@@H](NC(=O)c3ccc(-n4cnnc4)cc3Cl)C2)c2onc(N)c2c1Cl` [Example 12, (R)—N-(1-(3-Amino-4-chloro-5-methylbenzo[d]isoxazol-7-yl)pyrrolidin-3-yl)-2-chloro-4-(4H-1,2,4-triazol-4-yl)benzamide] was run?
**A.** The pIC50 was no less than 7.00.

**Q.** With `Nc1noc2c(N3CC[C@@H](NC(=O)c4ccc(-n5cnnc5)cc4Cl)C3)ccc(F)c12` [Example 13, (R)—N-(1-(3-Amino-4-fluorobenzo[d]isoxazol-7-yl)pyrrolidin-3-yl)-2-chloro-4-(4H-1,2,4-triazol-4-yl)benzamide] as the compound, how does the pIC50 read?
**A.** The pIC50 was 6.00 to 7.00.

**Q.** `Nc1noc2c(N3CC[C@@H](NC(=O)c4ccc(-n5cnnc5)cc4Cl)C3)cc(Cl)c(Cl)c12` [Example 14, (R)—N-(1-(3-Amino-4,5-dichlorobenzo[d]isoxazol-7-yl)pyrrolidin-3-yl)-2-chloro-4-(4H-1,2,4-triazol-4-yl)benzamide] was tested. Which pIC50 did it give?
**A.** The pIC50 was no less than 7.00.

**Q.** `Cc1ncn(-c2ccc(C(=O)NC3(C)CCN(c4cc(Cl)cc5c(N)noc45)C3)c(Cl)c2)n1` (stereo not drawn) [Example 15, N-(1-(3-Amino-5-chlorobenzo[d]isoxazol-7-yl)-3-methylpyrrolidin-3-yl)-2-chloro-4-(3-methyl-1H-1,2,4-triazol-1-yl)benzamide] was tested. Which pIC50 did it give?
**A.** The pIC50 was no less than 7.00.

**Q.** With `Nc1noc2c(N3CC[C@@H](NC(=O)c4ccc(-n5cnc(CO)n5)cc4Cl)C3)cc(Cl)cc12` [Example 16, (R)—N-(1-(3-Amino-5-chlorobenzo[d]isoxazol-7-yl)pyrrolidin-3-yl)-2-chloro-4-(3-(hydroxymethyl)-1H-1,2,4-triazol-1-yl)benzamide] as the compound, how does the pIC50 read?
**A.** The pIC50 was no less than 7.00.

**Q.** With `Nc1noc2c(N3CC[C@@H](NC(=O)c4ccc(-n5cnc(C6CC6)n5)cc4Cl)C3)cc(Cl)cc12` [Example 17, (R)—N-(1-(3-Amino-5-chlorobenzo[d]isoxazol-7-yl)pyrrolidin-3-yl)-2-chloro-4-(3-cyclopropyl-1H-1,2,4-triazol-1-yl)benzamide] as the compound, how does the pIC50 read?
**A.** Its pIC50 is no less than 7.00.

**Q.** With `Nc1noc2c(N3CC[C@@H](NC(=O)c4ccc(-n5cncn5)cc4F)C3)ccc(Cl)c12` [Example 18, (R)—N-(1-(3-Amino-4-chlorobenzo[d]isoxazol-7-yl)pyrrolidin-3-yl)-2-fluoro-4-(1H-1,2,4-triazol-1-yl)benzamide] as the compound, how does the pIC50 read?
**A.** The pIC50 was 6.00 to 7.00.

**Q.** How did the pIC50 turn out when `Cc1cc(-n2cncn2)ccc1C(=O)N[C@@H]1CCN(c2ccc(Cl)c3c(N)noc23)C1` [Example 19, (R)—N-(1-(3-Amino-4-chlorobenzo[d]isoxazol-7-yl)pyrrolidin-3-yl)-2-methyl-4-(1H-1,2,4-triazol-1-yl)benzamide] was run?
**A.** Its pIC50 is 6.00 to 7.00.

**Q.** `Nc1noc2c(N3CC[C@@H](NC(=O)c4ccc(-c5cncnc5)cc4Cl)C3)ncc(Cl)c12` [Example 20, (R)—N-(1-(3-Amino-4-chloroisoxazolo[5,4-c]pyridin-7-yl)pyrrolidin-3-yl)-2-chloro-4-(pyrimidin-5-yl)benzamide] was tested. Which pIC50 did it give?
**A.** Its pIC50 is no less than 7.00.

**Q.** With `COc1ncc(-c2ccc(C(=O)N[C@@H]3CCN(c4ncc(Cl)c5c(N)noc45)C3)c(Cl)c2)cn1` [Example 21, (R)—N-(1-(3-Amino-4-chloroisoxazolo[5,4-c]pyridin-7-yl)pyrrolidin-3-yl)-2-chloro-4-(2-methoxypyrimidin-5-yl)benzamide] as the compound, how does the pIC50 read?
**A.** Its pIC50 is no less than 7.00.

**Q.** `N#Cc1ncc(-c2ccc(C(=O)N[C@@H]3CCN(c4ncc(Cl)c5c(N)noc45)C3)c(Cl)c2)cn1` [Example 22, (R)—N-(1-(3-Amino-4-chloroisoxazolo[5,4-c]pyridin-7-yl)pyrrolidin-3-yl)-2-chloro-4-(2-cyanopyrimidin-5-yl)benzamide] was tested. Which pIC50 did it give?
**A.** Its pIC50 is no less than 7.00.

**Q.** How did the pIC50 turn out when `Nc1noc2c(N3CC[C@@H](NC(=O)c4ccc(-n5cnc(CCO)n5)cc4Cl)C3)ccc(Cl)c12` [Example 23, (R)—N-(1-(3-Amino-4-chlorobenzo[d]isoxazol-7-yl)pyrrolidin-3-yl)-2-chloro-4-(3-(2-hydroxyethyl)-1H-1,2,4-triazol-1-yl)benzamide] was run?
**A.** The pIC50 was no less than 7.00.

**Q.** With `Nc1noc2c(N3CC[C@@H](NC(=O)c4ccc(-n5cncn5)cc4Cl)C3)ncc(Cl)c12` [Example 24, (R)—N-(1-(3-Amino-4-chloroisoxazolo[5,4-c]pyridin-7-yl)pyrrolidin-3-yl)-2-chloro-4-(1H-1,2,4-triazol-1-yl)benzamide] as the compound, how does the pIC50 read?
**A.** The pIC50 was no less than 7.00.

**Q.** With `Nc1noc2c(N3CC[C@@H](NC(=O)c4ccc(-c5cncc(CO)c5)cc4Cl)C3)ccc(Cl)c12` [Example 25, (R)—N-(1-(3-Amino-4-chlorobenzo[d]isoxazol-7-yl)pyrrolidin-3-yl)-2-chloro-4-(5-(hydroxymethyl)pyridin-3-yl)benzamide] as the compound, how does the pIC50 read?
**A.** The pIC50 was no less than 7.00.

**Q.** How did the pIC50 turn out when `Nc1noc2c(N3CC[C@@H](NC(=O)c4ccc(-n5cc(CCO)cn5)cc4Cl)C3)ccc(Cl)c12` [Example 26, (R)—N-(1-(3-Amino-4-chlorobenzo[d]isoxazol-7-yl)pyrrolidin-3-yl)-2-chloro-4-(4-(2-hydroxyethyl)-1H-pyrazol-1-yl)benzamide] was run?
**A.** The pIC50 was no less than 7.00.

**Q.** With `Nc1noc2c(N3CC[C@@H](NC(=O)c4ccc(-n5cnc(CCO)c5)cc4Cl)C3)ncc(Cl)c12` [Example 27, (R)—N-(1-(3-Amino-4-chloroisoxazolo[5,4-c]pyridin-7-yl)pyrrolidin-3-yl)-2-chloro-4-(4-(2-hydroxyethyl)-1H-imidazol-1-yl)benzamide] as the compound, how does the pIC50 read?
**A.** Its pIC50 is no less than 7.00.

**Q.** How did the pIC50 turn out when `Nc1noc2c(N3CC[C@@H](NC(=O)c4ccc(-n5cnnc5C(F)F)cc4Cl)C3)ncc(Cl)c12` [Example 28, (R)—N-(1-(3-Amino-4-chloroisoxazolo[5,4-c]pyridin-7-yl)pyrrolidin-3-yl)-2-chloro-4-(3-(difluoromethyl)-4H-1,2,4-triazol-4-yl)benzamide] was run?
**A.** Its pIC50 is no less than 7.00.

**Q.** How did the pIC50 turn out when `Nc1noc2c(N3CC[C@@H](NC(=O)c4ccc(-n5cnc6ccccc65)cc4Cl)C3)ncc(Cl)c12` [Example 29, (R)—N-(1-(3-Amino-4-chloroisoxazolo[5,4-c]pyridin-7-yl)pyrrolidin-3-yl)-4-(1H-benzo[d]imidazol-1-yl)-2-chlorobenzamide] was run?
**A.** The pIC50 was no less than 7.00.

**Q.** With `Nc1noc2c(N3CC[C@@H](NC(=O)c4ccc(-c5ccnnc5)cc4Cl)C3)ncc(Cl)c12` [Example 30, (R)—N-(1-(3-Amino-4-chloroisoxazolo[5,4-c]pyridin-7-yl)pyrrolidin-3-yl)-2-chloro-4-(pyridazin-4-yl)benzamide] as the compound, how does the pIC50 read?
**A.** Its pIC50 is no less than 7.00.

**Q.** With `Nc1noc2c(N3CC[C@@H](NC(=O)c4ccc(-c5cncc(CCO)c5)cc4Cl)C3)ncc(Cl)c12` [Example 31, (R)—N-(1-(3-Amino-4-chloroisoxazolo[5,4-c]pyridin-7-yl)pyrrolidin-3-yl)-2-chloro-4-(5-(2-hydroxyethyl)pyridin-3-yl)benzamide] as the compound, how does the pIC50 read?
**A.** The pIC50 was no less than 7.00.
